In this test the test system is feline calcivirus ATCC VR-782. The note with it: 20 mg/L in a water based solution applied to a surface; 10 minutes exposure; non-enveloped virus. The method, then: Copper ions (20 mg/L) in a water based solution were applied to a surface with the non-enveloped feline calcivirus ATCC VR-782. […] In our case we wanted to have an idea about the rate of killing and this is why we limited the test to 10 minutes.

With copper iodide, the “reduction relative to the control” value was found to be 82.22%.

(Values after US9615572B1, “Disinfectant spray comprising copper iodide” (PEN Inc., priority 2014, dated 2017).)
